From ChEMBL document CHEMBL1681651, “A broad spectrum anticancer nucleoside with selective toxicity against human colon cells in vitro” (2011)

How the values were obtained:
Assay type in all cases: functional
786-0 [1] = test: Growth inhibition of human 786-0 cells assessed as cell growth at 1 mM after 48 hrs by SRB assay; details: 786-0, 48 h, read-out: Activity
NCI/ADR-RES = test: Growth inhibition of human NCI/ADR-RES cells assessed as cell growth at 10 uM after 48 hrs by SRB assay; details: read-out: Activity
Malme-3M [2] = test: Growth inhibition of human MALME-3M cells assessed as cell growth at 1 uM after 48 hrs by SRB assay; details: read-out: Activity
CCRF-CEM [3] = test: Growth inhibition of human CCRF-CEM cells assessed as cell growth at 100 uM after 48 hrs by SRB assay; details: read-out: Activity
COLO 205 = test: Growth inhibition of human COLO205 cells assessed as cell growth at 100 uM after 48 hrs by SRB assay; details: COLO 205, 48 h, read-out: Activity
HCT-116 = test: Growth inhibition of human HCT116 cells after 48 hrs by […] growth inhibition assay; details: HCT-116, 48 h
SNB-19 [4] = test: Growth inhibition of human SNB19 cells assessed as cell growth at 10 uM after 48 hrs by SRB assay; details: SNB-19, 48 h, read-out: Activity
NCI-H522 [5] = test: Growth inhibition of human NCI-H522 cells assessed as cell growth at 0.1 uM after 48 hrs by SRB assay; details: NCI-H522, 48 h, read-out: Activity
KM12 [6] = test: Growth inhibition of human KM12 cells assessed as cell growth at 0.1 uM after 48 hrs by SRB assay; details: KM12, 48 h, read-out: Activity
UACC-257 = test: Growth inhibition of human UACC257 cells assessed as cell growth at 0.1 uM after 48 hrs by SRB assay; details: UACC-257, 48 h, read-out: Activity
MDA-MB-435 = test: Growth inhibition of human MDA-MB-435 cells assessed as cell growth at 0.1 uM after 48 hrs by SRB assay; details: MDA-MB-435, 48 h, read-out: Activity
A549 [7] = test: Growth inhibition of human A549 cells assessed as cell growth at 1 mM after 48 hrs by SRB assay; details: A549, 48 h, read-out: Activity
SF-539 = test: Growth inhibition of human SF539 cells after 48 hrs by […] growth inhibition assay; details: SF-539, 48 h
EKVX = test: Growth inhibition of human EKVX cells assessed as cell growth at 1 mM after 48 hrs by SRB assay; details: read-out: Activity
HCC 2998 = test: Growth inhibition of human HCC2998 cells assessed as cell growth at 100 uM after 48 hrs by SRB assay; details: HCC 2998, 48 h, read-out: Activity
NCI-H522 [8] = test: Growth inhibition of human NCI-H522 cells assessed as cell growth at 1 uM after 48 hrs by SRB assay; details: NCI-H522, 48 h, read-out: Activity
HOP-62 [9] = test: Growth inhibition of human HOP62 cells assessed as cell growth at 1 mM after 48 hrs by SRB assay; details: HOP-62, 48 h, read-out: Activity
786-0 [10] = test: Growth inhibition of human 786-0 cells assessed as cell growth at 100 uM after 48 hrs by SRB assay; details: 786-0, 48 h, read-out: Activity
SNB-75 [11] = test: Growth inhibition of human SNB75 cells assessed as cell growth at 1 uM after 48 hrs by SRB assay; details: SNB-75, 48 h, read-out: Activity
ACHN = test: Growth inhibition of human ACHN cells assessed as cell growth at 100 uM after 48 hrs by SRB assay; details: read-out: Activity
A549 [12] = test: Growth inhibition of human A549 cells assessed as cell growth at 1 uM after 48 hrs by SRB assay; details: A549, 48 h, read-out: Activity
T47D [13] = test: Growth inhibition of human T47D cells assessed as cell growth at 1 uM after 48 hrs by SRB assay; details: read-out: Activity
KM12 [14] = test: Growth inhibition of human KM12 cells assessed as cell growth at 10 uM after 48 hrs by SRB assay; details: KM12, 48 h, read-out: Activity
SN12C = test: Growth inhibition of human SN12C cells assessed as cell growth at 100 uM after 48 hrs by SRB assay; details: read-out: Activity
SNB-19 [15] = test: Growth inhibition of human SNB19 cells assessed as cell growth at 100 uM after 48 hrs by SRB assay; details: SNB-19, 48 h, read-out: Activity
LOX IMVI [16] = test: Growth inhibition of human LOXIMVI cells assessed as cell growth at 100 uM after 48 hrs by SRB assay; details: read-out: Activity
SNB-75 [17] = test: Growth inhibition of human SNB75 cells assessed as cell growth at 10 uM after 48 hrs by SRB assay; details: SNB-75, 48 h, read-out: Activity
CCRF-CEM [18] = test: Growth inhibition of human CCRF-CEM cells after 48 hrs by […] growth inhibition assay
LOX IMVI [19] = test: Growth inhibition of human LOXIMVI cells after 48 hrs by […] growth inhibition assay
SF-268 = test: Growth inhibition of human SF268 cells assessed as cell growth at 10 uM after 48 hrs by SRB assay; details: SF-268, 48 h, read-out: Activity
HOP-62 [20] = test: Growth inhibition of human HOP62 cells assessed as cell growth at 100 uM after 48 hrs by SRB assay; details: HOP-62, 48 h, read-out: Activity
OVCAR-5 = test: Growth inhibition of human OVCAR5 cells assessed as cell growth at 100 uM after 48 hrs by SRB assay; details: OVCAR-5, 48 h, read-out: Activity
HOP-92 = test: Growth inhibition of human HOP92 cells assessed as cell growth at 0.1 uM after 48 hrs by SRB assay; details: HOP-92, 48 h, read-out: Activity
T47D [21] = test: Growth inhibition of human T47D cells assessed as cell growth at 0.1 uM after 48 hrs by SRB assay; details: read-out: Activity
Malme-3M [22] = test: Growth inhibition of human MALME-3M cells assessed as cell growth at 100 uM after 48 hrs by SRB assay; details: read-out: Activity
NCI-H322M = test: Growth inhibition of human NCI-H322M cells assessed as cell growth at 1 uM after 48 hrs by SRB assay; details: read-out: Activity
[23] = Growth inhibition of human […] cells assessed as cell growth at 0.1 uM after 48 hrs by SRB assay; details: read-out: Activity
M14 = test: Growth inhibition of human M14 cells assessed as cell growth at 1 uM after 48 hrs by SRB assay; details: M14, 48 h, read-out: Activity
[24] = read-out: LC50 (the source's name)
[25] = read-out: pLC50 (the source's name) (converted)

## CNC(=O)NC[C@H]1O[C@@H](n2cnc3c(NC(=O)Nc4ccccc4)ncnc32)[C@H](O[Si](C)(C)C(C)(C)C)[C@@H]1CC(=O)N(C)OC
786-0 [1]
  growth at 1000 µM: 8%
NCI/ADR-RES
  growth at 10 µM: 105%
Malme-3M [2]
  growth at 1 µM: 88%
CCRF-CEM [3]
  growth at 100 µM: 39%
COLO 205
  growth at 100 µM: 55%
HCT-116; read-out: GI50
  GI50: 4.2 µM
HCT-116; [24]
  CC50: > 100 µM
HCT-116; read-out: TGI
  TGI: > 100 µM
HCT-116; read-out: pGI50 (converted)
  GI50: 4.17 µM
HCT-116; [25]
  CC50: > 100 µM
HCT-116; read-out: pTGI (converted)
  TGI: > 100 µM
SNB-19 [4]
  growth at 10 µM: 83%
NCI-H522 [5]
  growth at 0.1 µM: 90%
KM12 [6]
  growth at 0.1 µM: 101%
UACC-257
  growth at 0.1 µM: 95%
MDA-MB-435
  growth at 0.1 µM: 100%
A549 [7]
  growth at 1000 µM: 27%
SF-539; read-out: GI50
  GI50: 22.3 µM
SF-539; [24]
  CC50: > 100 µM
SF-539; read-out: TGI
  TGI: > 100 µM
SF-539; read-out: pGI50 (converted)
  GI50: 22.4 µM
SF-539; [25]
  CC50: > 100 µM
SF-539; read-out: pTGI (converted)
  TGI: > 100 µM
EKVX
  growth at 1000 µM: 36%
HCC 2998
  growth at 100 µM: 66%
NCI-H522 [8]
  growth at 1 µM: 87%
HOP-62 [9]
  growth at 1000 µM: 28%
786-0 [10]
  growth at 100 µM: 48%
SNB-75 [11]
  growth at 1 µM: 95%
ACHN
  growth at 100 µM: 55%
A549 [12]
  growth at 1 µM: 100%
T47D [13]
  growth at 1 µM: 89%
KM12 [14]
  growth at 10 µM: 106%
SN12C
  growth at 100 µM: 66%
SNB-19 [15]
  growth at 100 µM: 61%
LOX IMVI [16]
  growth at 100 µM: 43%
SNB-75 [17]
  growth at 10 µM: 84%
CCRF-CEM [18]; read-out: GI50
  GI50: 6.37 µM
CCRF-CEM [18]; read-out: LC50
  LC50 (lethal concentration, 50% net cell kill): > 100 µM
CCRF-CEM [18]; read-out: TGI
  TGI: > 100 µM
CCRF-CEM [18]; read-out: pGI50 (converted)
  GI50: 6.31 µM
CCRF-CEM [18]; read-out: pLC50 (converted)
  LC50 (lethal concentration, 50% net cell kill): > 100 µM
CCRF-CEM [18]; read-out: pTGI (converted)
  TGI: > 100 µM
LOX IMVI [19]; read-out: GI50
  GI50: 7.3 µM
LOX IMVI [19]; [24]
  CC50: > 100 µM
LOX IMVI [19]; read-out: TGI
  TGI: > 100 µM
LOX IMVI [19]; read-out: pGI50 (converted)
  GI50: 7.24 µM
LOX IMVI [19]; [25]
  CC50: > 100 µM
LOX IMVI [19]; read-out: pTGI (converted)
  TGI: > 100 µM
SF-268
  growth at 10 µM: 91%
HOP-62 [20]
  growth at 100 µM: 64%
OVCAR-5
  growth at 100 µM: 71%
HOP-92
  growth at 0.1 µM: 80%
T47D [21]
  growth at 0.1 µM: 90%
Malme-3M [22]
  growth at 100 µM: 52%
NCI-H322M
  growth at 1 µM: 98%
[23]
  growth at 0.1 µM: 80%
M14
  growth at 1 µM: 98%
